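Grown in 96-well plates, cells were treated for 48 hours with each compound at five concentrations. Insufficient inhibition: endpoint recorded as highest concentration tested. At the GI50, growth is halved.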 Calls of active or inactive are those of the source. Cut-off read from the data, not from the text of the source: active = GI50 up to about 1.1 µM and inactive = higher.
Key:
Test in all cases: growth of human tumour cells (NCI), 48 h
786-0 = tested on: 786-0
A498 = tested on: A498
A549 = tested on: A549
ACHN = tested on: ACHN
BT-549 = tested on: BT-549
CAKI-1 = tested on: CAKI-1
CCRF-CEM = tested on: CCRF-CEM
COLO 205 = tested on: COLO 205
DU-145 = tested on: DU-145
EKVX = tested on: EKVX
HCC 2998 = tested on: HCC 2998
HCT-116 = tested on: HCT-116
HCT-15 = tested on: HCT-15
HL-60 = tested on: HL-60
HOP-62 = tested on: HOP-62
HOP-92 = tested on: HOP-92
HT-29 = tested on: HT-29
Hs-578T = tested on: Hs-578T
IGROV-1 = tested on: IGROV-1
K562 = tested on: K562
KM12 = tested on: KM12
LOX IMVI = tested on: LOX IMVI
M14 = tested on: M14
MCF7 = tested on: MCF7
MDA-MB-231 = tested on: MDA-MB-231
MDA-MB-435 = tested on: MDA-MB-435
MDA-N = tested on: MDA-N
MOLT-4 = tested on: MOLT-4
Malme-3M = tested on: Malme-3M
NCI-H226 = tested on: NCI-H226
NCI-H23 = tested on: NCI-H23
NCI-H460 = tested on: NCI-H460
NCI-H522 = tested on: NCI-H522
NCI/ADR-RES = tested on: NCI/ADR-RES
OVCAR-3 = tested on: OVCAR-3
OVCAR-4 = tested on: OVCAR-4
OVCAR-5 = tested on: OVCAR-5
OVCAR-8 = tested on: OVCAR-8
PC-3 = tested on: PC-3
RPMI-8226 = tested on: RPMI-8226
RXF 393 = tested on: RXF 393
SF-268 = tested on: SF-268
SF-295 = tested on: SF-295
SF-539 = tested on: SF-539
SK-MEL-28 = tested on: SK-MEL-28
SK-MEL-2 = tested on: SK-MEL-2
SK-MEL-5 = tested on: SK-MEL-5
SK-OV-3 = tested on: SK-OV-3
SN12C = tested on: SN12C
SNB-19 = tested on: SNB-19
SNB-75 = tested on: SNB-75
SR = tested on: SR
SW-620 = tested on: SW-620
T47D = tested on: T47D
TK-10 = tested on: TK-10
U-251 = tested on: U-251
UACC-257 = tested on: UACC-257
UACC-62 = tested on: UACC-62
UO-31 = tested on: UO-31

SMILES: C=C(CCC(=O)N(CCc1c[nH]c2ccccc12)C(=O)c1ccccc1CSCC)C(=O)OC
- GI50 (786-0): 50 µM (inactive)
- GI50 (A498): 49.2 µM (inactive)
- GI50 (A549): 27.1 µM (inactive)
- GI50 (ACHN): 31.9 µM (inactive)
- GI50 (BT-549): 71.9 µM (inactive)
- GI50 (CAKI-1): 84.1 µM (inactive)
- GI50 (CCRF-CEM): 5.4 µM (inactive)
- GI50 (COLO 205): 20.9 µM (inactive)
- GI50 (DU-145): > 95.5 µM (inactive)
- GI50 (EKVX): 48.2 µM (inactive)
- GI50 (HCC 2998): 43.7 µM (inactive)
- GI50 (HCT-116): 7.19 µM (inactive)
- GI50 (HCT-15): 26.5 µM
- GI50 (HL-60): 3.46 µM (inactive)
- GI50 (HOP-62): > 69.2 µM (inactive)
- GI50 (HOP-92): 40.6 µM (inactive)
- GI50 (HT-29): 19.5 µM (inactive)
- GI50 (Hs-578T): 44.5 µM (inactive)
- GI50 (IGROV-1): 60.1 µM (inactive)
- GI50 (K562): 5.66 µM (inactive)
- GI50 (KM12): 8.2 µM (inactive)
- GI50 (LOX IMVI): 29.2 µM (inactive)
- GI50 (M14): 44.6 µM (inactive)
- GI50 (MCF7): 19.9 µM (inactive)
- GI50 (MDA-MB-231): 30.1 µM (inactive)
- GI50 (MDA-MB-435): 22 µM (inactive)
- GI50 (MDA-N): 38.4 µM (inactive)
- GI50 (MOLT-4): 4.02 µM (inactive)
- GI50 (Malme-3M): 48.9 µM (inactive)
- GI50 (NCI-H226): 53.7 µM (inactive)
- GI50 (NCI-H23): 31.9 µM (inactive)
- GI50 (NCI-H460): 32.2 µM (inactive)
- GI50 (NCI-H522): 23.6 µM (inactive)
- GI50 (NCI/ADR-RES): 27.3 µM (inactive)
- GI50 (OVCAR-3): > 39.5 µM (inactive)
- GI50 (OVCAR-4): 50 µM (inactive)
- GI50 (OVCAR-5): > 100 µM (inactive)
- GI50 (OVCAR-8): 48.4 µM (inactive)
- GI50 (PC-3): 23.2 µM (inactive)
- GI50 (RPMI-8226): 7.59 µM (inactive)
- GI50 (RXF 393): > 47.5 µM (inactive)
- GI50 (SF-268): > 77.3 µM (inactive)
- GI50 (SF-295): 24.7 µM (inactive)
- GI50 (SF-539): > 88.5 µM (inactive)
- GI50 (SK-MEL-28): > 100 µM (inactive)
- GI50 (SK-MEL-2): 48.6 µM (inactive)
- GI50 (SK-MEL-5): 23.4 µM (inactive)
- GI50 (SK-OV-3): > 71.3 µM (inactive)
- GI50 (SN12C): 30.3 µM (inactive)
- GI50 (SNB-19): 56.5 µM (inactive)
- GI50 (SNB-75): > 83.8 µM (inactive)
- GI50 (SR): > 100 µM (inactive)
- GI50 (SW-620): 49.9 µM (inactive)
- GI50 (T47D): 21.9 µM (inactive)
- GI50 (TK-10): 66.5 µM (inactive)
- GI50 (U-251): 10.3 µM (inactive)
- GI50 (UACC-257): 35.3 µM (inactive)
- GI50 (UACC-62): 12.4 µM (inactive)
- GI50 (UO-31): 27.7 µM (inactive)

SMILES: O=C1CCSc2nc(-c3ccc4c(c3)OCO4)nn21
- GI50 (786-0): > 10 µM (inactive)
- GI50 (A498): > 10 µM (inactive)
- GI50 (A549): > 10 µM (inactive)
- GI50 (ACHN): > 10 µM (inactive)
- GI50 (BT-549): > 10 µM (inactive)
- GI50 (CAKI-1): > 10 µM (inactive)
- GI50 (CCRF-CEM): > 10 µM (inactive)
- GI50 (COLO 205): > 10 µM (inactive)
- GI50 (DU-145): > 10 µM (inactive)
- GI50 (EKVX): > 10 µM (inactive)
- GI50 (HCC 2998): > 10 µM (inactive)
- GI50 (HCT-116): > 10 µM (inactive)
- GI50 (HCT-15): > 10 µM
- GI50 (HL-60): > 10 µM (inactive)
- GI50 (HOP-62): > 10 µM (inactive)
- GI50 (HOP-92): > 10 µM (inactive)
- GI50 (HT-29): > 10 µM (inactive)
- GI50 (Hs-578T): > 10 µM (inactive)
- GI50 (IGROV-1): > 10 µM (inactive)
- GI50 (K562): > 10 µM (inactive)
- GI50 (KM12): > 10 µM (inactive)
- GI50 (LOX IMVI): > 10 µM (inactive)
- GI50 (M14): > 10 µM (inactive)
- GI50 (MCF7): > 10 µM (inactive)
- GI50 (MDA-MB-231): > 10 µM (inactive)
- GI50 (MDA-MB-435): > 10 µM (inactive)
- GI50 (MDA-N): > 10 µM (inactive)
- GI50 (MOLT-4): > 10 µM (inactive)
- GI50 (Malme-3M): > 10 µM (inactive)
- GI50 (NCI-H226): > 10 µM (inactive)
- GI50 (NCI-H23): > 10 µM (inactive)
- GI50 (NCI-H460): > 10 µM (inactive)
- GI50 (NCI-H522): > 10 µM (inactive)
- GI50 (NCI/ADR-RES): > 10 µM (inactive)
- GI50 (OVCAR-3): > 10 µM (inactive)
- GI50 (OVCAR-4): > 10 µM (inactive)
- GI50 (OVCAR-5): > 10 µM (inactive)
- GI50 (OVCAR-8): > 10 µM (inactive)
- GI50 (PC-3): > 10 µM (inactive)
- GI50 (RPMI-8226): > 10 µM (inactive)
- GI50 (RXF 393): > 10 µM (inactive)
- GI50 (SF-268): > 10 µM (inactive)
- GI50 (SF-295): > 10 µM (inactive)
- GI50 (SF-539): > 10 µM (inactive)
- GI50 (SK-MEL-28): > 10 µM (inactive)
- GI50 (SK-MEL-2): > 10 µM (inactive)
- GI50 (SK-MEL-5): > 10 µM (inactive)
- GI50 (SK-OV-3): > 10 µM (inactive)
- GI50 (SN12C): > 10 µM (inactive)
- GI50 (SNB-19): > 10 µM (inactive)
- GI50 (SNB-75): > 10 µM (inactive)
- GI50 (SR): > 10 µM (inactive)
- GI50 (SW-620): > 10 µM (inactive)
- GI50 (T47D): > 10 µM (inactive)
- GI50 (TK-10): > 10 µM (inactive)
- GI50 (U-251): > 10 µM (inactive)
- GI50 (UACC-257): > 10 µM (inactive)
- GI50 (UACC-62): > 10 µM (inactive)

Source: ChEMBL document CHEMBL1201862, “PubChem BioAssay data set” (2004)
